Common to all, as to type: functional, cell membranes, Membrane vesicle
The target in data set [1] is T1, MRP4 (ABCC4) (Homo sapiens, UniProt O15439).
T1 sequence (O15439 whole entry): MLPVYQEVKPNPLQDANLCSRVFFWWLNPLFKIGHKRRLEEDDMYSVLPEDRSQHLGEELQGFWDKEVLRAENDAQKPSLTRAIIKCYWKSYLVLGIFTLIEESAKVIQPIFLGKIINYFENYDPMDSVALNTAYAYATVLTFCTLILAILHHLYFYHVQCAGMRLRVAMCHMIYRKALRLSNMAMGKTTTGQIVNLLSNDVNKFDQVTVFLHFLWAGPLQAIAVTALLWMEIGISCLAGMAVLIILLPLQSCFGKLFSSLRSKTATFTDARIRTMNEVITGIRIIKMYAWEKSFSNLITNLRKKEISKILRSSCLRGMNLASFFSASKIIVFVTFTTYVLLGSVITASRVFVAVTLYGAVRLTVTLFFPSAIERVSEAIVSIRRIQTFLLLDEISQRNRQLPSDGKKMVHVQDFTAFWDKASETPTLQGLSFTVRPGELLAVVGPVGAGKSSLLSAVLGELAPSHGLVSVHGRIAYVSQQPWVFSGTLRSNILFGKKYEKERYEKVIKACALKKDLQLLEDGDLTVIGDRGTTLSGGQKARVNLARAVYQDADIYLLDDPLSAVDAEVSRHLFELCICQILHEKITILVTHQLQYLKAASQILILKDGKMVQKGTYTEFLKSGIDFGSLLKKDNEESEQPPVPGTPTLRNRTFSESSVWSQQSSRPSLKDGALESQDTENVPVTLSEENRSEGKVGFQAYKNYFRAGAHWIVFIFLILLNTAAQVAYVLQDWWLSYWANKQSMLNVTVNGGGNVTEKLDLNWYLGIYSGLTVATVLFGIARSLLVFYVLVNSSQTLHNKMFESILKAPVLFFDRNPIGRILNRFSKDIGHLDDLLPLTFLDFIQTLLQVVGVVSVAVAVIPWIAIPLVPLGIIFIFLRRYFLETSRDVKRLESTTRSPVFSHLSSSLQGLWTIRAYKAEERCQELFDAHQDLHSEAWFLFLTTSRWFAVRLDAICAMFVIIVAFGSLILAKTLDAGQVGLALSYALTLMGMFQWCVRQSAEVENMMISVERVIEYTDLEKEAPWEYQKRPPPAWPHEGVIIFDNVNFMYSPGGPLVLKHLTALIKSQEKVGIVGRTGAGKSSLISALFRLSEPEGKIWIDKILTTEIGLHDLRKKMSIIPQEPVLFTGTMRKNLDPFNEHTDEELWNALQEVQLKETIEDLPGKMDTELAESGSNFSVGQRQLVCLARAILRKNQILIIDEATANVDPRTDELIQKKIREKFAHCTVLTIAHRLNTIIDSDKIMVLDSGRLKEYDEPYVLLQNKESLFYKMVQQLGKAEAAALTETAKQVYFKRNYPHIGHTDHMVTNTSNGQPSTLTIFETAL
Briefly: TP_TRANSPORTER: inhibition of Methotrexate uptake (MTX: 0.1 uM, alpha-naphthyl beta-D-glucuronide: 1000 uM) in membrane vesicles from MRP4-expressing Sf9 cells. The arrangement: scale not given: the % may be the effect or the level left. The following applies: probe methotrexate 0.1 uM, read-out: Activity.

Data set [2] addresses T1, MRP4 (ABCC4). In words: TP_TRANSPORTER: inhibition of Methotrexate uptake (MTX: 0.1 uM, DNP-SG: 100 uM) in membrane vesicles from MRP4-expressing Sf9 cells. The arrangement: scale not given: the % may be the effect or the level left. The note with it: probe methotrexate 0.1 uM, read-out: Activity.
For data set [3], the target named is T1, MRP4 (ABCC4). In words: TP_TRANSPORTER: inhibition of MTX uptake (MTX: 0.1 uM, NAc-DNP-Cys: 100 uM) in membrane vesicles from MRP4-expressing Sf9 cells. The arrangement: scale not given: the % may be the effect or the level left. The note with it: probe methotrexate 0.1 uM, read-out: Activity.
The target of data set [4] is T2, ATP-binding cassette sub-family C member 4 (Homo sapiens, UniProt O15439).
T2 sequence (O15439 whole entry): T1 sequence (O15439 whole entry)
In words: TP_TRANSPORTER: inhibition of cGMP uptake ([…]: 1 uM, Dipyridamole: 1 uM) in membrane vesicles from MRP4-expressing Sf9 cells. Further details: scale not given: the % may be the effect or the level left. The note with it: sf9, 1 µM.

Data set [5] deals with T2, ATP-binding cassette sub-family C member 4. Briefly: TP_TRANSPORTER: inhibition of cGMP uptake ([…]: 1 uM, Probenecid: 1000 uM) in membrane vesicles from MRP4-expressing Sf9 cells. The note with it: sf9, 1000 µM. Further details: scale not given: the % may be the effect or the level left.
For data set [6], the target named is T1, MRP4 (ABCC4). Briefly: TP_TRANSPORTER: inhibition of MTX uptake (MTX: 0.1 uM, p-Nitropenyl-beta-D-glucuronide: 1000 uM) in membrane vesicles from MRP4-expressing Sf9 cells. Further details: scale not given: the % may be the effect or the level left. The following applies: probe methotrexate 0.1 uM, read-out: Activity.
The target in data set [7] is T1, MRP4 (ABCC4). In words: TP_TRANSPORTER: inhibition of MTX uptake (MTX: 0.1 uM, E217betaG: 100 uM) in membrane vesicles from MRP4-expressing Sf9 cells. Further details: scale not given: the % may be the effect or the level left. The note with it: probe methotrexate 0.1 uM, read-out: Activity.
Substrate in data set [8]: CN(Cc1cnc2nc(N)nc(N)c2n1)c1ccc(C(=O)N[C@@H](CCC(=O)O)C(=O)O)cc1
Briefly: TP_TRANSPORTER: uptake in membrane vesicles from MRP4-expressing Sf9 cells.

As a reminder, the Km is the substrate concentration at which the rate is half of its maximum.

As to `O=C(O)[C@H]1O[C@@H](Oc2cccc3ccccc23)[C@H](O)[C@@H](O)[C@@H]1O`, the activity at 1000 µM at MRP4 (ABCC4) [1] is 18%.
Consider `N[C@@H](CCC(=O)N[C@H](CSc1ccc([N+](=O)[O-])cc1[N+](=O)[O-])C(=O)NCC(=O)O)C(=O)O`, for which the activity at 100 µM on MRP4 (ABCC4) [2] is 3%.
For `CC(=O)N[C@@H](CSc1ccc([N+](=O)[O-])cc1[N+](=O)[O-])C(=O)O`, at MRP4 (ABCC4) [3], the activity at 100 µM is 29%.
For the molecule `OCCN(CCO)c1nc(N2CCCCC2)c2nc(N(CCO)CCO)nc(N3CCCCC3)c2n1` [DIPYRIDAMOLE], in data set [4], the Activity is listed as 9%.
As to `CCCN(CCC)S(=O)(=O)c1ccc(C(=O)O)cc1` [PROBENECID], in data set [5], the Activity came out at 10%.
As for `O=C(O)[C@H]1O[C@@H](Oc2ccc([N+](=O)[O-])cc2)[C@H](O)[C@@H](O)[C@@H]1O`, the activity at 1000 µM on MRP4 (ABCC4) [6] was 25%.
Regarding `C[C@]12CC[C@@H]3c4ccc(O)cc4CC[C@H]3[C@@H]1CC[C@@H]2O[C@@H]1O[C@H](C(=O)O)[C@@H](O)[C@H](O)[C@H]1O` [ESTRADIOL 17B GLUCURONIDE], the activity at 100 µM on MRP4 (ABCC4) [7] was 75%.

B1: ATP-binding cassette sub-family C member 4 (Homo sapiens) (protein)
chain: T1 sequence (O15439 whole entry)
Turning to B1, the Michaelis-Menten constant (Km) in data set [8] turned out to be 1300 µM.

Source of the values: ChEMBL document CHEMBL2074199, “The MRP4/ABCC4 gene encodes a novel apical organic anion transporter in human kidney proximal tubules: putative efflux pump for urinary cAMP and cGMP” (J Am Soc Nephrol, 2002).
